Source: patent US6852673B2, “Herbicidal pyridine compounds” (BASF Aktiengesellschaft, priority 1998, dated 2005)

Experiments:
Format in all cases: in vivo
[1] = tested on: Echinochloa grus galli (ECHCG); assay: Pre-emergence herbicidal evaluation, barnyard grass
Excerpt: (§1) The pre-emergence herbicidal activity of the compounds of the present invention is exemplified by the following test in which the seeds of a variety of monocotyledonous and dicotyledonous plants are seperately mixed with potting soil and planted on top of approximately one inch of soil in separate pots. After planting, the pots are sprayed with the selected aqueous acetone solution containing test compound in sufficient quantity to provide the equivalent of about 0.0125 to 0.4 kg per hectare of test compound per pot. The treated pots are then placed on greenhouse benches, watered and cared for in accordance with conventional greenhouse procedures. From 2 to 4 weeks after treatment, the tests are terminated and each pot is examined and rated according to the rating system set forth below.

Setaria viridis (SETVI) [2] = assay: Pre-emergence herbicidal evaluation, green foxtail
Excerpt: as §1

Hordeum vulgare (HORVW) = assay: Post-emergence herbicidal evaluation, winter barley; details: rated 2 to 4 weeks after treatment
Description: (§2) [table] [table] […] These acetone solutions are diluted with water and the resulting formulations applied at dosage levels equivalent of about 0.03 to 0.4 kg per hectare of test compound per pot. After spraying the plants are placed on greenhouse benches and are cared for in the usual manner, commensurate with conventional greenhouse practices. From 2 to 4 weeks after treatment, the seedling plants are examined and rated according to the rating system provided above. A rating 0 indicates growth as untreated control, a rating 9 indicates death.

Oryza sativum (ORYSA) = assay: Post-emergence herbicidal evaluation, rice; details: rated 2 to 4 weeks after treatment
Description: as §2

[3] = tested on: Triticum aestivum (TRZAW); assay: Post-emergence herbicidal evaluation, winter wheat; details: rated 2 to 4 weeks after treatment
Description: as §2

Zea mays (ZEAMX) = assay: Post-emergence herbicidal evaluation, maize; details: rated 2 to 4 weeks after treatment
Description: as §2

[4] = tested on: Abutilon theophrasti (ABUTH); assay: Post-emergence herbicidal evaluation, velvetleaf; details: rated 2 to 4 weeks after treatment
Description: as §2

[5] = tested on: Ambrosia artemiisifolia (AMBEL); assay: Post-emergence herbicidal evaluation, ragweed; details: rated 2 to 4 weeks after treatment
Description: as §2

Galium aparine (GALAP) = assay: Post-emergence herbicidal evaluation, cleaver; details: rated 2 to 4 weeks after treatment
Description: as §2

[6] = tested on: Ipomoea hederacea (IPOHE); assay: Post-emergence herbicidal evaluation, morning glory; details: rated 2 to 4 weeks after treatment
Description: as §2

Lamium purpureum (LAMPU) = assay: Post-emergence herbicidal evaluation, purple deadnettle; details: rated 2 to 4 weeks after treatment
Description: as §2

[7] = tested on: Matricaria inodora (MATIN); assay: Post-emergence herbicidal evaluation, mayweed; details: rated 2 to 4 weeks after treatment
Description: as §2

Solanum nigrum (SOLNI) = assay: Post-emergence herbicidal evaluation, black nightshade; details: rated 2 to 4 weeks after treatment
Description: as §2

Stellaria media (STEME) = assay: Post-emergence herbicidal evaluation, chickweed; details: rated 2 to 4 weeks after treatment
Description: as §2

[8] = tested on: Alopecurus myosuroides (ALOMY); assay: Post-emergence herbicidal evaluation, black grass; details: rated 2 to 4 weeks after treatment
Description: as §2

[9] = tested on: Digitaria sanguinalis (DIGSA); assay: Post-emergence herbicidal evaluation, large crabgrass; details: rated 2 to 4 weeks after treatment
Description: as §2

[10] = tested on: Echinochloa grus galli (ECHCG); assay: Post-emergence herbicidal evaluation, barnyard grass; details: rated 2 to 4 weeks after treatment
Description: as §2

Setaria viridis (SETVI) [11] = assay: Post-emergence herbicidal evaluation, green foxtail; details: for SETVI rating: rated 2 to 4 weeks after treatment
Description: as §2

weeds = assay: Post-emergence herbicidal evaluation, overall weed control; details: in barley at crop selective doses
Description: as §2

Cc1cc(OCC(F)(F)C(F)(F)F)nc(Oc2cc(C(F)(F)F)nn2C)c1 [Example 7]
ECHCG rating ([1]; dose 0.013 kg/ha): 0 (0 - No effect)
ECHCG rating ([1]; dose 0.025 kg/ha): 1 (1 - Trace effect)
ECHCG rating ([1]; dose 0.1 kg/ha): 4 (4 - Injury)
ECHCG rating ([1]; dose 0.4 kg/ha): 7 (7 - Good herbicidal effect)
SETVI rating (Setaria viridis (SETVI) [2]; dose 0.013 kg/ha): 2 (2 - Slight effect)
SETVI rating (Setaria viridis (SETVI) [2]; dose 0.025 kg/ha): 2 (2 - Slight effect)
SETVI rating (Setaria viridis (SETVI) [2]; dose 0.1 kg/ha): 5 (5 - Definite injury)
SETVI rating (Setaria viridis (SETVI) [2]; dose 0.4 kg/ha): 8 (8 - Approaching complete kill)
HORVW rating (Hordeum vulgare (HORVW); dose 0.03 kg/ha): 2 (2 - Slight effect)
HORVW rating (Hordeum vulgare (HORVW); dose 0.1 kg/ha): 3 (3 - Moderate effect)
HORVW rating (Hordeum vulgare (HORVW); dose 0.4 kg/ha): 3 (3 - Moderate effect)
ORYSA rating (Oryza sativum (ORYSA); dose 0.03 kg/ha): 3 (3 - Moderate effect)
ORYSA rating (Oryza sativum (ORYSA); dose 0.1 kg/ha): 3 (3 - Moderate effect)
ORYSA rating (Oryza sativum (ORYSA); dose 0.4 kg/ha): 3 (3 - Moderate effect)
TRZAW rating ([3]; dose 0.03 kg/ha): 2 (2 - Slight effect)
TRZAW rating ([3]; dose 0.1 kg/ha): 2 (2 - Slight effect)
TRZAW rating ([3]; dose 0.4 kg/ha): 3 (3 - Moderate effect)
ZEAMX rating (Zea mays (ZEAMX); dose 0.03 kg/ha): 2 (2 - Slight effect)
ZEAMX rating (Zea mays (ZEAMX); dose 0.1 kg/ha): 2 (2 - Slight effect)
ZEAMX rating (Zea mays (ZEAMX); dose 0.4 kg/ha): 3 (3 - Moderate effect)
ABUTH rating ([4]; dose 0.03 kg/ha): 2 (2 - Slight effect)
ABUTH rating ([4]; dose 0.4 kg/ha): 2 (2 - Slight effect)
AMBEL rating ([5]; dose 0.03 kg/ha): 1 (1 - Trace effect)
AMBEL rating ([5]; dose 0.1 kg/ha): 2 (2 - Slight effect)
AMBEL rating ([5]; dose 0.4 kg/ha): 5 (5 - Definite injury)
GALAP rating (Galium aparine (GALAP); dose 0.03 kg/ha): 3 (3 - Moderate effect)
GALAP rating (Galium aparine (GALAP); dose 0.1 kg/ha): 5 (5 - Definite injury)
GALAP rating (Galium aparine (GALAP); dose 0.4 kg/ha): 5 (5 - Definite injury)
IPOHE rating ([6]; dose 0.03 kg/ha): 3 (3 - Moderate effect)
IPOHE rating ([6]; dose 0.1 kg/ha): 9 (9 - Complete kill)
IPOHE rating ([6]; dose 0.4 kg/ha): 9 (9 - Complete kill)
LAMPU rating (Lamium purpureum (LAMPU); dose 0.03 kg/ha): 0 (0 - No effect)
LAMPU rating (Lamium purpureum (LAMPU); dose 0.1 kg/ha): 2 (2 - Slight effect)
LAMPU rating (Lamium purpureum (LAMPU); dose 0.4 kg/ha): 6 (6 - Herbicidal effect)
MATIN rating ([7]; dose 0.03 kg/ha): 2 (2 - Slight effect)
MATIN rating ([7]; dose 0.1 kg/ha): 7 (7 - Good herbicidal effect)
MATIN rating ([7]; dose 0.4 kg/ha): 8 (8 - Approaching complete kill)
SOLNI rating (Solanum nigrum (SOLNI); dose 0.03 kg/ha): 0 (0 - No effect)
SOLNI rating (Solanum nigrum (SOLNI); dose 0.1 kg/ha): 0 (0 - No effect)
SOLNI rating (Solanum nigrum (SOLNI); dose 0.4 kg/ha): 0 (0 - No effect)
STEME rating (Stellaria media (STEME); dose 0.03 kg/ha): 2 (2 - Slight effect)
STEME rating (Stellaria media (STEME); dose 0.1 kg/ha): 5 (5 - Definite injury)
STEME rating (Stellaria media (STEME); dose 0.4 kg/ha): 5 (5 - Definite injury)
ALOMY rating ([8]; dose 0.03 kg/ha): 2 (2 - Slight effect)
ALOMY rating ([8]; dose 0.1 kg/ha): 4 (4 - Injury)
ALOMY rating ([8]; dose 0.4 kg/ha): 5 (5 - Definite injury)
DIGSA rating ([9]; dose 0.03 kg/ha): 2 (2 - Slight effect)
DIGSA rating ([9]; dose 0.1 kg/ha): 9 (9 - Complete kill)
DIGSA rating ([9]; dose 0.4 kg/ha): 9 (9 - Complete kill)
ECHCG rating ([10]; dose 0.03 kg/ha): 4 (4 - Injury)
ECHCG rating ([10]; dose 0.1 kg/ha): 7 (7 - Good herbicidal effect)
ECHCG rating ([10]; dose 0.4 kg/ha): 7 (7 - Good herbicidal effect)
SETVI rating (Setaria viridis (SETVI) [11]; dose 0.03 kg/ha): 2 (2 - Slight effect)
SETVI rating (Setaria viridis (SETVI) [11]; dose 0.1 kg/ha): 4 (4 - Injury)
SETVI rating (Setaria viridis (SETVI) [11]; dose 0.4 kg/ha): 8 (8 - Approaching complete kill)
grass control such as Setaria virides (Setaria viridis (SETVI) [11]; in barley at crop selective doses): effective
broad-leaved weed control (weeds): effective
